In PMC6562696, “Anti-Inflammatory Effects by Pharmacological Inhibition or Knockdown of Fatty Acid Amide Hydrolase in BV2 Microglial Cells” (Cells, 2019):

Target: T1, Fatty acid amide hydrolase (FAAH) (Mus musculus, UniProt O08914)
T1 construct: endogenous FAAH in BV2 microglial cell membrane fraction
T1 sequence (O08914 1-579): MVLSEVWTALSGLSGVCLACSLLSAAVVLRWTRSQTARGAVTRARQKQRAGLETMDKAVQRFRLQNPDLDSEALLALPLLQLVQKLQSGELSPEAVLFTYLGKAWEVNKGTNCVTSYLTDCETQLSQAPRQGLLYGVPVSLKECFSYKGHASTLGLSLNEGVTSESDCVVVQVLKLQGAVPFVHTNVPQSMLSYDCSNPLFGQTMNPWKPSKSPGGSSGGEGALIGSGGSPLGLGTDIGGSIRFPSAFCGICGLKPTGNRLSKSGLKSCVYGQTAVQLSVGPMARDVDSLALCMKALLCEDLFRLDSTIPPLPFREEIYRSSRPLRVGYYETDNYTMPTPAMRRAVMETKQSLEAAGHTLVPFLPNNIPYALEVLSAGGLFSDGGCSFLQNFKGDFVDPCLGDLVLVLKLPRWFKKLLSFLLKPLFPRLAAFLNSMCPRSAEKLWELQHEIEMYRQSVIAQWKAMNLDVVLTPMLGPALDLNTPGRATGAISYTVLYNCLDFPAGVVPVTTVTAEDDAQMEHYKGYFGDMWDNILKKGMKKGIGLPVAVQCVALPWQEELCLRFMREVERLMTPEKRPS
Experiment: radiolabeled AEA hydrolysis in BV2 membranes; blocked by FAAH inhibitors, reduced […] by FAAH siRNA
Assay type: cell-based

SMILES: CCCCC/C=C\C/C=C\C/C=C\C/C=C\CCCC(=O)NCCO [anandamide]
- radiolabeled AEA hydrolysis in BV2 membranes; blocked by FAAH inhibitors, reduce: These results indicated that all AEA hydrolysis activity was attributed to FAAH in BV2 microglial cells.
